Experiment in all cases: yeast liquid growth assay
What all share (type): cell-based

Test [1] has as its target T1, hA1AR D55V^2.50 (Homo sapiens, UniProt P30542, D55V).
T1 construct: expressed in transfected cells; host or cells: S. cerevisiae MMY24
T1 sequence (P30542 1-326 D55V): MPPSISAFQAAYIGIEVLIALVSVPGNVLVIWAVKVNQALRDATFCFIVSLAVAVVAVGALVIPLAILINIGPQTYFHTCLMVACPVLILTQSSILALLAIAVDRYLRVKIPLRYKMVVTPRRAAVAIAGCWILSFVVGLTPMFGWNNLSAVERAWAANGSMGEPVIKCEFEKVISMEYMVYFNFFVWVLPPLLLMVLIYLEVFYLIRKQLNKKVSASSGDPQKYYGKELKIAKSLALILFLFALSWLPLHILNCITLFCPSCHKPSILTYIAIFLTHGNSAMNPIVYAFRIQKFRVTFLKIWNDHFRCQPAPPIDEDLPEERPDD
The settings on record: result in words.

Test [2] addresses T2, hA1AR D55G^2.50 (Homo sapiens, UniProt P30542, D55G).
T2 construct: expressed in transfected cells; host or cells: S. cerevisiae MMY24
T2 sequence (P30542 1-326 D55G): T1 sequence (P30542 1-326 D55V) with V55G
The settings on record: result in words.

Test [3] concerns the target T3, hA1AR L134F^4.52 (Homo sapiens, UniProt P30542, L134F).
T3 sequence (P30542 1-326 L134F): T1 sequence (P30542 1-326 D55V) with V55D, L134F
The settings on record: result in words.

Test [4] addresses T4, hA1AR T257P^6.58 (Homo sapiens, UniProt P30542, T257P).
T4 construct: expressed in transfected cells; host or cells: S. cerevisiae MMY24
T4 sequence (P30542 1-326 T257P): T1 sequence (P30542 1-326 D55V) with V55D, T257P
The settings on record: result in words.

In test [5] the target is T5, hA1AR A20T^1.43 (Homo sapiens, UniProt P30542, A20T).
T5 construct: expressed in transfected cells; host or cells: S. cerevisiae MMY24
T5 sequence (P30542 1-326 A20T): T1 sequence (P30542 1-326 D55V) with A20T, V55D
The following applies: ratio over basal activity of wild type hA1AR, 7 mM 3-AT.

Where a chain is given by its changes, count along the chain named.

Take `OC[C@H]1O[C@@H](n2cnc3c(NC4CCCC4)ncnc32)[C@H](O)[C@@H]1O` [CPA, N^6-cyclopentyladenosine]: the agonist-induced receptor activation entry in test [1], in test [2], in test [3] and in test [4] was “could not be activated” in each case. Further, the Emax in test [5] is given as 4.23 ± 0.60.
